These results are taken from publication PMC11995724, “Antibiotic target discovery by integrated phenotypic and activity-based profiling of electrophilic fragments” (Cell chemical biology, 2025).

The nature of the data set: in vitro. Conditions: human, hek293t cells.
As for `C=CC(=O)N(C)CC(=O)N1CCCC(CC(N)=O)CC1` (stereo not shown) [3-C20, N-{2-[4-(carbamoylmethyl)azepan-1-yl]-2-oxoethyl}-N-methylprop-2-enamide], the viability at 48 h, 25 µM amounted to 68.6%.

On to `O=C(CCl)Nc1ccccc1C(=O)c1ccccc1` [4-J06, N-(2-benzoylphenyl)-2-chloroacetamide], for which the viability at 48 h, 25 µM amounted to 1.12%.

In the case of `CCN(C(=O)C(C)Cl)c1ccccc1` (stereo not shown) [4-P16, 2-chloro-N-ethyl-N-phenylpropanamide], the viability at 48 h, 25 µM came out at 109%.

Consider `CC(=O)Nc1ccc(C=C(C#N)C(=O)Nc2ccccc2Cl)cc1` [8-M11, N-(2-chlorophenyl)-2-cyano-3-(4-acetamidophenyl)prop-2-enamide], for which the viability at 48 h, 25 µM is 86.4%.

For the compound `C=CC(=O)NC(c1ccccc1)c1nc(C)no1` (stereo not shown) [1-B13, N-[(3-methyl-1,2,4-oxadiazol-5-yl)(phenyl)methyl]prop-2-enamide], the viability at 48 h, 25 µM amounted to 109%.

On to `Cc1cccc(C=C(C#N)C(=O)Nc2ccc(C(=O)O)cc2)c1` [8-M21, 4-[2-cyano-3-(3-methylphenyl)prop-2-enamido]benzoic acid], for which the viability at 48 h, 25 µM turned out to be 91.6%.

For the compound `C=CC(=O)N1CCC(c2nc(C(=O)O)co2)CC1` [2-K03, 2-[1-(prop-2-enoyl)piperidin-4-yl]-1,3-oxazole-4-carboxylic acid], the viability at 48 h, 25 µM amounted to 99.1%.

In the case of `CC(Cl)C(=O)Nc1ccc([N+](=O)[O-])cc1C(F)(F)F` (stereo not shown) [6-D06, 2-chloro-N-[4-nitro-2-(trifluoromethyl)phenyl]propanamide], the viability at 48 h, 25 µM came out at 98.9%.

`CC(Cl)C(=O)Nc1cc([N+](=O)[O-])ccc1Cl` (stereo not shown) [6-I14, 2-chloro-N-(2-chloro-5-nitrophenyl)propanamide]: the viability at 48 h, 25 µM came out at 117%.

With `O=C(CCl)NCCCC1CCCCC1` [6-O05, 2-chloro-N-(3-cyclohexylpropyl)acetamide], the viability at 48 h, 25 µM is 45.7%.

Take `CCOC(=O)c1c(C)[nH]c(C(=O)C(C)Cl)c1C` (stereo not shown) [10-B22, ethyl 5-(2-chloropropanoyl)-2,4-dimethyl-1H-pyrrole-3-carboxylate]: the viability at 48 h, 25 µM was 95.2%.

On to `C=CC(=O)NC(C(N)=O)c1ccccc1F` (stereo not shown) [2-H19, N-[carbamoyl(2-fluorophenyl)methyl]prop-2-enamide], for which the viability at 48 h, 25 µM was determined as 51.9%.

On to `CC(Cl)C(=O)NCCc1ccc[nH]1` (stereo not shown) [7-L09, 2-chloro-N-[2-(1H-pyrrol-2-yl)ethyl]propanamide], for which the viability at 48 h, 25 µM turned out to be 91.9%.

For the compound `COc1ccc(C=C(C#N)C(=O)Nc2cccc(Cl)c2)cc1` [8-I09, N-(3-chlorophenyl)-2-cyano-3-(4-methoxyphenyl)prop-2-enamide], the viability at 48 h, 25 µM stood at 80%.

As to `CCOc1ccc(C=C(C#N)C(=O)Nc2ccncc2)cc1` [8-I22, 2-cyano-3-(4-ethoxyphenyl)-N-(pyridin-4-yl)prop-2-enamide], the viability at 48 h, 25 µM amounted to 99.3%.

In the case of `CC(Cl)C(=O)NCCCc1c[nH]c2ccc(F)cc12` (stereo not shown) [7-J09, 2-chloro-N-[3-(5-fluoro-1H-indol-3-yl)propyl]propanamide], the viability at 48 h, 25 µM turned out to be 96%.

Turning to `Cc1cc(NC(=O)CN(C)C(=O)C(C)Cl)no1` (stereo not shown) [7-M19, 2-chloro-N-methyl-N-{[(5-methyl-1,2-oxazol-3-yl)carbamoyl]methyl}propanamide], the viability at 48 h, 25 µM was determined as 79.5%.

In the case of `C=CC(=O)NC12CC3CC(CC(C3)C1)C2` [1-E12, N-(adamantan-1-yl)prop-2-enamide], the viability at 48 h, 25 µM is 56.7%.

As to `O=C(CCl)NC1CCCc2c1cnn2Cc1ccccc1` (stereo not shown) [7-F20, N-(1-benzyl-4,5,6,7-tetrahydro-1H-indazol-4-yl)-2-chloroacetamide], the viability at 48 h, 25 µM was determined as 0.873%.

For the compound `C=CC(=O)NC1(c2cc(C)no2)CCOCC1` [1-F18, N-[4-(3-methyl-1,2-oxazol-5-yl)oxan-4-yl]prop-2-enamide], the viability at 48 h, 25 µM was 68.5%.

With `CC(Cl)C(=O)N1C2CCC1CC(N(C)C(=O)c1ccccc1)C2` (stereo not shown) [6-L14, N-[8-(2-chloropropanoyl)-8-azabicyclo[3.2.1]octan-3-yl]-N-methylbenzamide], the viability at 48 h, 25 µM is 101%.

On to `Cc1c(C=C(C#N)C(=O)NCc2ccccc2)cc(C#N)n1C` [9-I15, N-benzyl-2-cyano-3-(5-cyano-1,2-dimethyl-1H-pyrrol-3-yl)prop-2-enamide], for which the viability at 48 h, 25 µM is 134%.

For `CC(Cl)C(=O)Nc1ccc(C2CC(=O)NC(=O)N2)cc1` (stereo not shown) [5-D19, 2-chloro-N-[4-(2,6-dioxo-1,3-diazinan-4-yl)phenyl]propanamide], the viability at 48 h, 25 µM was 92.5%.

Turning to `Cc1cccc(C)c1NC(=O)CNC(=O)C(C)Cl` (stereo not shown) [6-F10, 2-chloro-N-{[(2,6-dimethylphenyl)carbamoyl]methyl}propanamide], the viability at 48 h, 25 µM is 106%.

With `C=CC(=O)NCC1(C)CCC(C)(C)CC1` [1-F22, N-[(1,4,4-trimethylcyclohexyl)methyl]prop-2-enamide], the viability at 48 h, 25 µM was determined as 83.2%.

On to `CC(Cl)C(=O)NC(C)c1nc(-c2cccnc2)cs1` (stereo not shown) [6-P07, 2-chloro-N-{1-[4-(pyridin-3-yl)-1,3-thiazol-2-yl]ethyl}propanamide], for which the viability at 48 h, 25 µM came out at 115%.

Turning to `C=CC(=O)NC(c1ccc(F)cc1)c1ccn(C)n1` (stereo not shown) [3-J20, N-[(4-fluorophenyl)(1-methyl-1H-pyrazol-3-yl)methyl]prop-2-enamide], the viability at 48 h, 25 µM stood at 99.9%.

Regarding `O=C(CCl)Nc1ccccc1Sc1ccc(Cl)cc1` [4-O13, 2-chloro-N-{2-[(4-chlorophenyl)sulfanyl]phenyl}acetamide], the viability at 48 h, 25 µM is 0.318%.

Take `CS(=O)(=O)c1ccc(CNC(=O)CCl)cc1` [6-O12, 2-chloro-N-[(4-methanesulfonylphenyl)methyl]acetamide]: the viability at 48 h, 25 µM came out at 1.69%.

Turning to `Cc1csc(CN2CCN(C(=O)C(C)Cl)CC2)n1` (stereo not shown) [5-H17, 2-chloro-1-{4-[(4-methyl-1,3-thiazol-2-yl)methyl]piperazin-1-yl}propan-1-one], the viability at 48 h, 25 µM was 87.4%.

Regarding `Cc1cc(C(=O)CCl)c(C)n1Cc1ccccc1` [10-M14, 1-(1-benzyl-2,5-dimethyl-1H-pyrrol-3-yl)-2-chloroethan-1-one], the viability at 48 h, 25 µM was determined as 78.4%.

For the compound `C=CC(=O)Nc1cc(NC(=O)c2ccc([N+](=O)[O-])o2)ccc1F` [3-J04, N-[4-fluoro-3-(prop-2-enamido)phenyl]-5-nitrofuran-2-carboxamide], the viability at 48 h, 25 µM is 0.415%.

On to `C=CCNC(=O)C(C#N)=Cc1ccc(OC)c(O)c1` [8-E21, 2-cyano-3-(3-hydroxy-4-methoxyphenyl)-N-(prop-2-en-1-yl)prop-2-enamide], for which the viability at 48 h, 25 µM came to 75.7%.

Consider `CCc1ccc(OC(C)C(=O)N2CCN(C(=O)C(C)Cl)CC2)cc1` (stereo not shown) [6-H16, 1-[4-(2-chloropropanoyl)piperazin-1-yl]-2-(4-ethylphenoxy)propan-1-one], for which the viability at 48 h, 25 µM was 105%.

For `CC(Cl)C(=O)NC1COCc2ccccc21` (stereo not shown) [6-B05, 2-chloro-N-(3,4-dihydro-1H-2-benzopyran-4-yl)propanamide], the viability at 48 h, 25 µM stood at 106%.

`CC(Cl)C(=O)N1CCCN2c3ccccc3CC2C1` (stereo not shown) [7-G06, 1-{1H,2H,3H,4H,5H,11H,11aH-[1,4]diazepino[1,2-a]indol-2-yl}-2-chloropropan-1-one]: the viability at 48 h, 25 µM is 96.3%.

On to `O=C(CCl)NCCc1nc2ccccc2s1` [6-K20, N-[2-(1,3-benzothiazol-2-yl)ethyl]-2-chloroacetamide], for which the viability at 48 h, 25 µM was 98%.

The viability is a read-out of living cells in per cent, often relative to untreated cells.
